From ChEMBL document CHEMBL1201862, “PubChem BioAssay data set” (2004)
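Step 1: Grow cells in 96-well plates. Step 2: Expose to compound for 48 hours at 5 concentrations. Step 3: Interpolate endpoints linearly; if unreached, use highest concentration. The concentration for 50% growth inhibition is given as GI50.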 The source made the active and inactive calls. Cut-off read from the data, not from the text of the source: active = GI50 up to about 1.1 µM and inactive = higher.

Experiments:
Test in all cases: growth of human tumour cells (NCI), 48 h
786-0 = test system: 786-0
A498 = test system: A498
A549 = test system: A549
ACHN = test system: ACHN
BT-549 = test system: BT-549
CAKI-1 = test system: CAKI-1
COLO 205 = test system: COLO 205
DU-145 = test system: DU-145
EKVX = test system: EKVX
HCC 2998 = test system: HCC 2998
HCT-116 = test system: HCT-116
HCT-15 = test system: HCT-15
HL-60 = test system: HL-60
HOP-62 = test system: HOP-62
HOP-92 = test system: HOP-92
HT-29 = test system: HT-29
Hs-578T = test system: Hs-578T
IGROV-1 = test system: IGROV-1
K562 = test system: K562
KM12 = test system: KM12
LOX IMVI = test system: LOX IMVI
M14 = test system: M14
MCF7 = test system: MCF7
MDA-MB-231 = test system: MDA-MB-231
MDA-MB-435 = test system: MDA-MB-435
MDA-N = test system: MDA-N
MOLT-4 = test system: MOLT-4
Malme-3M = test system: Malme-3M
NCI-H226 = test system: NCI-H226
NCI-H23 = test system: NCI-H23
NCI-H460 = test system: NCI-H460
NCI-H522 = test system: NCI-H522
NCI/ADR-RES = test system: NCI/ADR-RES
OVCAR-3 = test system: OVCAR-3
OVCAR-4 = test system: OVCAR-4
OVCAR-5 = test system: OVCAR-5
OVCAR-8 = test system: OVCAR-8
PC-3 = test system: PC-3
RPMI-8226 = test system: RPMI-8226
RXF 393 = test system: RXF 393
SF-268 = test system: SF-268
SF-295 = test system: SF-295
SF-539 = test system: SF-539
SK-MEL-28 = test system: SK-MEL-28
SK-MEL-2 = test system: SK-MEL-2
SK-MEL-5 = test system: SK-MEL-5
SK-OV-3 = test system: SK-OV-3
SN12C = test system: SN12C
SNB-19 = test system: SNB-19
SNB-75 = test system: SNB-75
SR = test system: SR
SW-620 = test system: SW-620
T47D = test system: T47D
TK-10 = test system: TK-10
U-251 = test system: U-251
UACC-257 = test system: UACC-257
UACC-62 = test system: UACC-62
UO-31 = test system: UO-31
CCRF-CEM = test system: CCRF-CEM

Measured: GI50

COc1ccc2c3c(ccc2c1)NC(C(=O)O)CC3 (stereo not drawn)
inactive: 786-0 97.7 µM | A498 27.7 µM | A549 62.1 µM | ACHN 73.8 µM | BT-549 > 100 µM | CAKI-1 88.3 µM | COLO 205 39.5 µM | DU-145 > 100 µM | EKVX 67.8 µM | HCC 2998 44.3 µM | HCT-116 80.2 µM | HL-60 26.1 µM | HOP-62 80.5 µM | HOP-92 79.4 µM | HT-29 45.2 µM | Hs-578T 50.4 µM | IGROV-1 40.8 µM | K562 35.2 µM | KM12 67.3 µM | LOX IMVI 46.5 µM | M14 45.1 µM | MCF7 36.4 µM | MDA-MB-231 85.7 µM | MDA-MB-435 60.4 µM | MDA-N 57.8 µM | MOLT-4 19.5 µM | Malme-3M > 100 µM | NCI-H226 > 100 µM | NCI-H23 > 100 µM | NCI-H460 49.8 µM | NCI-H522 29.2 µM | NCI/ADR-RES 46.3 µM | OVCAR-3 35.6 µM | OVCAR-4 65.3 µM | OVCAR-5 > 100 µM | OVCAR-8 64.4 µM | PC-3 74.6 µM | RPMI-8226 17.1 µM | RXF 393 > 100 µM | SF-268 39.1 µM | SF-295 58.5 µM | SF-539 80.4 µM | SK-MEL-28 67.8 µM | SK-MEL-2 > 100 µM | SK-MEL-5 27.4 µM | SK-OV-3 > 100 µM | SN12C 63.1 µM | SNB-19 56.8 µM | SNB-75 57.7 µM | SR 18.5 µM | SW-620 35.2 µM | T47D 26.9 µM | TK-10 52.1 µM | U-251 38.2 µM | UACC-257 > 100 µM | UACC-62 40.5 µM | UO-31 47 µM
51.8 µM: HCT-15

Cc1nc(N)nc(N)c1N1CCN(Cc2ccccc2)CC1
inactive: 786-0 4.73 µM | A498 42.5 µM | A549 3.56 µM | ACHN 12.6 µM | BT-549 > 93.3 µM | CAKI-1 37.1 µM | CCRF-CEM 16.5 µM | COLO 205 31.8 µM | DU-145 37.2 µM | EKVX > 53.6 µM | HCC 2998 25.2 µM | HCT-116 4.71 µM | HL-60 25.1 µM | HOP-62 42.4 µM | HOP-92 35.3 µM | HT-29 11.8 µM | Hs-578T 48 µM | IGROV-1 19.9 µM | K562 6.44 µM | KM12 27 µM | LOX IMVI 8.15 µM | M14 13.3 µM | MCF7 27.1 µM | MDA-MB-231 > 86.3 µM | MDA-MB-435 11.4 µM | MDA-N 21.9 µM | MOLT-4 29.7 µM | Malme-3M 14.2 µM | NCI-H226 12.1 µM | NCI-H23 17.1 µM | NCI-H460 5.87 µM | NCI-H522 24.8 µM | NCI/ADR-RES 12.8 µM | OVCAR-3 47.8 µM | OVCAR-4 > 100 µM | OVCAR-5 > 37.8 µM | OVCAR-8 14.9 µM | PC-3 7.48 µM | RPMI-8226 > 39 µM | RXF 393 13.4 µM | SF-268 16.1 µM | SF-295 7.06 µM | SF-539 27.2 µM | SK-MEL-28 > 78.9 µM | SK-MEL-2 64.6 µM | SK-MEL-5 > 37.8 µM | SK-OV-3 > 55.1 µM | SN12C 56.1 µM | SNB-19 55.5 µM | SNB-75 > 52.5 µM | SR 36.6 µM | SW-620 38.9 µM | T47D > 100 µM | TK-10 66.1 µM | U-251 48.8 µM | UACC-257 9.64 µM | UACC-62 30.5 µM | UO-31 45.4 µM
9.42 µM: HCT-15

CC(C)(C)c1cc(C(C)(C)C)c2c(c1O)OC(=O)CS2
inactive: 786-0 6.07 µM | A498 13 µM | A549 3.59 µM | ACHN 3.96 µM | BT-549 8.32 µM | CAKI-1 5.9 µM | CCRF-CEM 4.17 µM | COLO 205 2.99 µM | DU-145 15.7 µM | EKVX 4.31 µM | HCC 2998 3.03 µM | HCT-116 3.6 µM | HL-60 3.62 µM | HOP-62 7.13 µM | HOP-92 9.59 µM | HT-29 4.34 µM | Hs-578T 2.84 µM | IGROV-1 7.1 µM | K562 3.16 µM | KM12 4.44 µM | LOX IMVI 8.47 µM | M14 7.1 µM | MCF7 3.82 µM | MDA-MB-231 16.2 µM | MDA-MB-435 3.85 µM | MDA-N 3.67 µM | MOLT-4 4.61 µM | Malme-3M 20.8 µM | NCI-H226 8.34 µM | NCI-H23 4.15 µM | NCI-H460 2.75 µM | NCI-H522 4.06 µM | NCI/ADR-RES 4.55 µM | OVCAR-3 3.69 µM | OVCAR-4 5.28 µM | OVCAR-5 5.85 µM | OVCAR-8 5.98 µM | PC-3 7.24 µM | RPMI-8226 21.1 µM | RXF 393 3.61 µM | SF-268 5.51 µM | SF-295 4.26 µM | SF-539 3.72 µM | SK-MEL-28 13.4 µM | SK-MEL-2 6.93 µM | SK-MEL-5 2.88 µM | SK-OV-3 13.4 µM | SN12C 5.79 µM | SNB-19 5.2 µM | SNB-75 1.15 µM | SR 4.56 µM | SW-620 6.52 µM | T47D 4.56 µM | TK-10 3.88 µM | U-251 4.78 µM | UACC-257 13.9 µM | UACC-62 2.2 µM | UO-31 5.73 µM
3.66 µM: HCT-15

C/C(=N\Nc1nc2cc(C)ccc2s1)c1ccccn1
0.272 µM: HCT-15
inactive: BT-549 6.22 µM | HCC 2998 1.29 µM | Hs-578T 1.29 µM | MDA-N 1.68 µM | RXF 393 3.63 µM | SF-295 1.15 µM | SF-539 1.39 µM | SK-MEL-28 1.61 µM | SNB-19 1.38 µM | SNB-75 2.23 µM | TK-10 2.22 µM
active: 786-0 0.519 µM | A498 1.09 µM | A549 0.798 µM | ACHN 0.25 µM | CAKI-1 0.0562 µM | CCRF-CEM 0.149 µM | COLO 205 0.0518 µM | DU-145 0.652 µM | EKVX 0.143 µM | HCT-116 0.213 µM | HL-60 0.158 µM | HOP-62 0.294 µM | HOP-92 0.282 µM | HT-29 0.121 µM | IGROV-1 0.199 µM | K562 0.0948 µM | KM12 0.794 µM | LOX IMVI 0.481 µM | M14 0.417 µM | MCF7 0.119 µM | MDA-MB-231 0.233 µM | MDA-MB-435 0.982 µM | MOLT-4 < 0.0246 µM | Malme-3M 0.332 µM | NCI-H226 0.348 µM | NCI-H23 0.39 µM | NCI-H460 0.69 µM | NCI-H522 0.148 µM | NCI/ADR-RES 0.261 µM | OVCAR-3 0.441 µM | OVCAR-4 0.324 µM | OVCAR-5 0.661 µM | OVCAR-8 0.18 µM | PC-3 0.593 µM | RPMI-8226 0.273 µM | SF-268 0.505 µM | SK-MEL-2 0.4 µM | SK-MEL-5 0.404 µM | SK-OV-3 0.49 µM | SN12C 0.401 µM | SR 0.232 µM | SW-620 0.209 µM | T47D 0.589 µM | U-251 0.946 µM | UACC-257 0.5 µM | UACC-62 0.596 µM | UO-31 0.117 µM

CCN(CC)CCSc1c2cc(OC)ccc2nc2ccc(OC)cc12
inactive: 786-0 1.85 µM | A498 23 µM | A549 16.1 µM | ACHN 2.21 µM | BT-549 5.69 µM | CAKI-1 7.53 µM | CCRF-CEM 2.86 µM | COLO 205 1.98 µM | DU-145 2.05 µM | EKVX 9.59 µM | HCC 2998 13.5 µM | HCT-116 2.26 µM | HL-60 5.3 µM | HOP-62 16.7 µM | HOP-92 2.19 µM | HT-29 2.05 µM | Hs-578T 1.68 µM | IGROV-1 1.95 µM | KM12 5.09 µM | LOX IMVI 2.17 µM | M14 6.73 µM | MCF7 2.51 µM | MDA-MB-231 6.53 µM | MDA-MB-435 7.03 µM | MDA-N 4.39 µM | MOLT-4 2.29 µM | Malme-3M 2.75 µM | NCI-H226 16.2 µM | NCI-H23 3.3 µM | NCI-H460 9.75 µM | NCI-H522 1.59 µM | NCI/ADR-RES 7.67 µM | OVCAR-3 2.59 µM | OVCAR-4 6.03 µM | OVCAR-5 15.8 µM | OVCAR-8 3.12 µM | PC-3 3.56 µM | RPMI-8226 2.4 µM | RXF 393 7.38 µM | SF-268 3.08 µM | SF-295 19.4 µM | SF-539 2.45 µM | SK-MEL-28 10.3 µM | SK-MEL-2 17 µM | SK-MEL-5 13.6 µM | SK-OV-3 25.1 µM | SN12C 3.03 µM | SNB-19 12.1 µM | SNB-75 14.4 µM | SR 2.43 µM | SW-620 2.56 µM | T47D 1.93 µM | TK-10 4.65 µM | U-251 7.94 µM | UACC-257 4.35 µM | UACC-62 14.3 µM | UO-31 2.37 µM
2.86 µM: HCT-15
